Laboratory results taken from US6291677A, “Compounds having activity as inhibitors of cytochrome P450RAI” (Allergan Sales, Inc., priority 2000, dated 2001).
pIC50: −log10 of the molar value.

Assays:
[1] = test system: skin of hairless mice; experiment: topical skin irritation test in hairless mice; type: in vivo, female hairless mice (Crl:SKH1-hrBR); settings: once daily days 1 through 5, mean±SD
Description: Mice were housed individually throughout the dosing period.
Doses are disclosed as nmol/25 g.
The grading scale used is as follows:
Values can range from 0-9.
Values can range from 0-8.

[2] = test system: RARβ; experiment: chimeric receptor transactivation assay, RARβ; type: cell-based; settings: unit assumed
Description: (§1) Assays described below measure the ability of a compound to bind to, and/or activate various retinoid receptor subtypes. When in these assays a compound binds to a given receptor subtype and activates the transcription of a reporter gene through that subtype, then the compound is considered an agonist of that receptor subtype. […] In the below described assays the ability of the compounds to bind to RARα, RARβ, RARγ,RXRα, RXRβ and RXRγ receptors, and the ability or inability of the compounds to activate transcription of a reporter gene through these receptor subtypes can be tested.
(§2) The results obtained in this assay are expressed in EC50 numbers, as they are also in the chimeric receptor transactivation assay. The results of ligand binding assay are expressed in Kd numbers.

[3] = test system: RARα; experiment: chimeric receptor transactivation assay, RARα; type: cell-based; settings: unit assumed
Description: as §1, §2

[4] = test system: RARγ; experiment: chimeric receptor transactivation assay, RARγ; type: cell-based; settings: unit assumed
Description: as §1, §2

[5] = molecular target: T1, P450RAI-1 (Homo sapiens, UniProt O43174); experiment: cell-based; settings: intact HeLa, P450RAI-1 stably transfected, [3H]-RA, 3 hours at 37° C; read-out: P450RAI INHIBITION DATA INTACT HELA IC50
T1 sequence (O43174 1-497): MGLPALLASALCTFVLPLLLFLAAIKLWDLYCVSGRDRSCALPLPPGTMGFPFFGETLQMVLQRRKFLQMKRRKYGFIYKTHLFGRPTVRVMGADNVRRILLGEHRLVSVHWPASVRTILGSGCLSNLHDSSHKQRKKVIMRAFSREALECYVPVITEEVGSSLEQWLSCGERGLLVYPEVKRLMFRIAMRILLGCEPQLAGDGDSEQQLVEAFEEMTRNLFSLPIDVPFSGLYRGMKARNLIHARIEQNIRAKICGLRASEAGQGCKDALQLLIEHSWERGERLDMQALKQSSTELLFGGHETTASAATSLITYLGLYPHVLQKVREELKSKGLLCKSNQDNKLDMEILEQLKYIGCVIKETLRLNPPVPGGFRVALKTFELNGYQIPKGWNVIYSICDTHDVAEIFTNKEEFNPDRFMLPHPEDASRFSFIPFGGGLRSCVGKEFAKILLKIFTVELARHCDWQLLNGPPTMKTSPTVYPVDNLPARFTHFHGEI
Protocol: FIG. 1 is a schematic representation of the P450RAI cell based assay utilized to evaluate the ability of the compounds of the invention to inhibit the Cytochrome P450RAI enzyme.
P450RAI-1 Cell-Based Inhibitor Assay:
P450RAI-1 stably transfected HeLa cells are maintained in […] tissue culture dishes in Modified Eagle's Medium (MEM) containing 10% Fetal Bovine Serum (FBS) and 100 μg/ml hygromycin. Exponentially growing cells are harvested by incubating in trypsin. Cells are then washed with 1× Phosphate Buffered Saline (PBS) and plated in a 48-well plate at 5×10^5 cells in 0.2 ml MEM medium containing 10% FBS and 0.05 μCi [^3 H]-RA in the presence or absence of increasing concentrations of the test compounds. The compounds are diluted in 100% DMSO and then added in triplicate wells at either 10, 1 or 0.1 μM final concentration. As a positive control for RA metabolism inhibition, cells are also incubated with ketoconazole at 100, 10 and 1 μM. Cell are incubated for 3 hours at 37° C. […] The water soluble radioactivity is quantified using a β-scintillationcounter. IC50 values represent the concentration of inhibitor required to inhibit all-trans-RA metabolism by 50 percent and are derived manually from log-transformed data.

pIC50 [5] | SMILES | Cutaneous Toxicity Score (Blackjack Score) ([1]; 100 nmole) | Cutaneous Toxicity Score (Blackjack Score) ([1]; 1000 nmole) | (EFFICACY) RAR β [2] | (EFFICACY) RAR α [3] | (EFFICACY) RAR γ [4] | Cutaneous Toxicity Score (Blackjack Score) ([1]; 300 nmole)
– | CC1(C)CC(C)(C)c2cc(C#Cc3ccc(CC(=O)O)cc3)cc(C3CC3)c2O1 [Compound 36, [4-(8-Cyclopropyl-2,2,4,4-tetramethyl-chroman-6-yl-ethynyl)phenyl]acetic acid] | 1 ± 1 | 11 ± 0 | – | – | – | –
– | CC1(C)CCC(=O)c2ccc(C#Cc3ccc(C(=O)O)c(F)c3)cc21 [Compound 10, 2-Fluoro-4-(8,8-dimethyl-5-oxo-5,6,7,8-tetrahydro-naphthalen-2yl-ethynyl)-benzoic acid] | – | – | 86% | 146% | 94% | –
– | O=C(O)c1ccc(C#Cc2ccc(C3(NCc4ccccc4)CC3)cc2)cc1 [Compound 112] | – | – | 37% | – | – | –
6.89 | CC1(C)CC(C)(C)c2cc(C#Cc3ccc(CC(=O)O)c(F)c3)ccc2O1 [Compound 32, [2-Fluoro-4-(2,2,4,4-tetramethyl-chroman-6-yl-ethynyl)phenyl]acetic acid] | – | – | – | – | – | –
– | Cc1cc(C#Cc2ccc(C(=O)O)cc2)ccc1C1(OCc2ccccc2)CC1 [Compound 81, 4-[4-(1-Benzyloxycyclopropyl)-3-methyl-phenylethynyl]-benzoic acid] | – | – | 80% | – | 67% | –
– | CC1(C)CCC(=O)c2ccc(C#Cc3ccc(CC(=O)O)cc3)cc21 [Compound 5, 4-[(8,8-Dimethyl-5-oxo-5,6,7,8-tetrahydro-naphthalene-2-yl-ethynyl)-phenyl]-acetic acid] | 0 | 6 ± 3 | 36% | – | – | –
– | CC1(C)CC2(CC2)Oc2c(C3CC3)cc(C#Cc3ccc(CC(=O)O)c(F)c3)cc21 [Compound 50, 4-[(8-Cyclopropyl-3,4-dihydro-4,4-dimethylspiro[2H-1-benzopyran-2,1'-cyclopropane]-6-yl)ethynyl]-2-fluoro-benzeneacetic acid] | 1 ± 0 | 8 ± 2 | – | – | – | 3 ± 2
– | CC1(C)CC2(CC2)Oc2ccc(C#Cc3ccc(C(=O)O)c(F)c3)cc21 [Compound 44, 2-Fluoro-benzoic acid 4-[(3,4-dihydro-4,4-dimethylspiro[2H-1-benzopyran-2,1'-cyclopropane]-6-yl)ethynyl]-] | – | – | 100% | 138% | 116% | –
– | CCCN(CCC)C1(c2ccc(C#Cc3ccc(C(=O)O)cc3)cc2)CC1 [Compound 110, 4-[4-(1-Dipropylamino-cyclopropyl)-phenylethynyl]-benzoic acid] | – | – | 44% | – | 42% | –
– | CCCNC1(c2ccc(C#Cc3ccc(C(=O)O)cc3)cc2)CC1 [Compound 108, 4-[4-(1-Propylamino-cyclopropyl)-phenylethynyl]-benzoic acid] | – | – | 36% | 15% | 10% | –
– | CCc1cc(C#Cc2ccc(C(=O)O)cc2)ccc1C1(OCc2ccccc2)CC1 [Compound 93, 4-[4-(1-Benzyloxycyclopropy)-3-ethyl-phenylethynyl]-benzoic acid] | – | – | 39% | 114% | 55% | –
– | Cc1cc(C#Cc2ccc(C(=O)O)cc2)ccc1C1(OCC(C)(C)C)CC1 [Compound 89, 4-[4-[1-(2,2-Dimethylpropyloxy)-cyclopropyl]-3-methyl-phenylethynyl]-benzoic acid] | – | – | 50% | 20% | 46% | –
– | CN(C1CC1)C1CCC(C)(C)c2cc(C#Cc3ccc(C(=O)O)c(F)c3)ccc21 (stereo not drawn) [Compound 13, 4-[5-(Cyclopropyl-methyl-amino)-8,8-dimethyl-5,6,7,8-tetrahydro-naphthalene-2-yl-ethynyl]-2-fluoro benzoic acid] | – | – | 6.6% | – | 9% | –
– | CC1(C)CCC(=O)c2ccc(C#Cc3ccc(CC(=O)O)c(F)c3)cc21 [Compound 15, [2-Fluoro-4-(8,8-dimethyl-5-oxo-5,6,7,8-tetrahydro-naphthalene-2-yl-ethynyl)phenyl]-acetic acid] | 1 ± 1 | 5 ± 2 | – | – | – | –
5.00 | CC(C)N(C)C1CCC(C)(C)c2cc(C#Cc3ccc(C(=O)O)cc3)ccc21 (stereo not drawn) [Compound 26] | – | – | – | – | – | –
– | Cc1cc(C#Cc2ccc(C(=O)O)cc2)ccc1C1(OC(C)C)CC1 [Compound 85, 4-[4-(1-Isopropoxycyclopropyl)-3-methyl-phenylethynyl]-benzoic acid] | – | – | 77% | 60% | 65% | –
– | CC1(C)CC2(CC2)Oc2c(C3CC3)cc(C(=O)Oc3ccc(CC(=O)O)cc3)cc21 [Compound 58] | 0 ± 0 | 0 ± 0 | – | – | – | 0 ± 0
– | CN(C1CC1)C1CCC(C)(C)c2cc(C#Cc3ccc(C(=O)O)cc3)ccc21 (stereo not drawn) [Compound 3, 4-[(5-Cyclopropyl-methyl-amino)-8,8-dimethyl-5,6,7,8-tetrahydro-naphthalene-2yl-ethynyl]-benzoic acid] | – | – | 54% | 28% | 52% | –
– | CC1(C)CN(C2CC2)Cc2ccc(C#Cc3ccc(CC(=O)O)c(F)c3)cc21 [Compound 22, [4-(2-Cyclopropyl-4,4-dimethyl-1,2,34-tetrahydro-isoquinolin-6-yl-ethynyl)-2-fluoro-phenyl]-acetic acid] | 0 ± 0 | 1 ± 1 | – | – | – | 0 ± 0
– | CC1(C)CC2(CC2)Oc2ccc(C#Cc3ccc(C(=O)O)cc3)cc21 [Compound 40, Benzoic acid, 4-[(3,4-dihydro-4,4-dimethylspiro[2H-1-benzopyran-2,1'-cyclopropane]-6-yl)ethynyl]-] | – | – | 126% | 207% | 140% | –
– | CN(C1CC1)C1CCC(C)(C)c2cc(C#Cc3ccc(CC(=O)O)c(F)c3)ccc21 (stereo not drawn) [Compound 18, [4-(5-(Cyclopropyl-methyl-amino)-8,8-dimethyl-5,6,7,8-tetrahydro-naphthalene-2-yl-ethynyl)-2-fluoro-phenyl]-acetic acid] | 0 ± 0 | 10 ± 2 | – | – | – | 1 ± 1
– | CC1(C)CCC(n2ccnc2)c2ccc(C#Cc3ccc(CC(=O)O)cc3)cc21 (stereo not drawn) [Compound 137, [4-(5-Imidazol-1-yl-8,8-dimethyl-5,6,7,8-tetrahydro-naphthalen-2-yl-ethynyl)-phenyl]-acetic acid] | 1 ± 1 | 5 ± 2 | – | – | – | 1 ± 1
– | COC1(c2ccc(C#Cc3ccc(C(=O)O)cc3)cc2)CC1 [Compound 69, 4-[4-(1-Methoxycyclopropyl)-phenylethynyl]-benzoic acid] | – | – | 50% | 10% | 31% | –
– | CC1(C)CC2(CC2)Oc2c(C3CC3)cc(C#Cc3ccc(CC(=O)O)cc3)cc21 [Compound 48, Benzeneacetic acid, 4-[(8-cyclopropyl-3,4-dihydro-4,4-dimethylspiro[2H-1-benzopyran-2,1'-cyclopropane]-6-yl)ethynyl]-] | 1 ± 1 | 7 ± 2 | – | – | – | 3 ± 1
– | CC(C)OC1(c2ccc(C#Cc3ccc(C(=O)O)cc3)cc2)CC1 [Compound 73, 4-[4-(1-Isopropoxycyclopropyl)-phenylethynyl]-benzoic acid] | – | – | 39% | – | 24% | –
